Experiment [1] deals with acyl-coenzyme A: cholesterol acyltransferase (ACAT). Nature of the experiment: inhibition of acyl-coenzyme A: cholesterol acyltransferase (intracellular cholesterol esterification, procedure of Ross et al.). The format is cell-based. Conditions: for IC50: read-out: ACAT IC50. The procedure: 1. The ability of the compounds of this invention to inhibit acyl-coenzyme A: cholesterol acyltransferase was established by initially showing that they inhibited intracellular cholesterol esterification by subjecting them to the standard experimental test procedure of Ross et al., J. Biol. Chem. 259, 814 (1984). The results are reported in the following table, where available, in terms of the percent inhibition at 25 μM and the IC50 (μM).

The target in experiment [2] is T1, cholesterol esterase (EC 3.1.1.13) (CEH) (Bos taurus, UniProt P30122).
T1 construct: purchased Sigma Company, St. Louis, Mo., U.S.A. C-1892; host or cells: bovine pancreas
T1 sequence (P30122 19-597): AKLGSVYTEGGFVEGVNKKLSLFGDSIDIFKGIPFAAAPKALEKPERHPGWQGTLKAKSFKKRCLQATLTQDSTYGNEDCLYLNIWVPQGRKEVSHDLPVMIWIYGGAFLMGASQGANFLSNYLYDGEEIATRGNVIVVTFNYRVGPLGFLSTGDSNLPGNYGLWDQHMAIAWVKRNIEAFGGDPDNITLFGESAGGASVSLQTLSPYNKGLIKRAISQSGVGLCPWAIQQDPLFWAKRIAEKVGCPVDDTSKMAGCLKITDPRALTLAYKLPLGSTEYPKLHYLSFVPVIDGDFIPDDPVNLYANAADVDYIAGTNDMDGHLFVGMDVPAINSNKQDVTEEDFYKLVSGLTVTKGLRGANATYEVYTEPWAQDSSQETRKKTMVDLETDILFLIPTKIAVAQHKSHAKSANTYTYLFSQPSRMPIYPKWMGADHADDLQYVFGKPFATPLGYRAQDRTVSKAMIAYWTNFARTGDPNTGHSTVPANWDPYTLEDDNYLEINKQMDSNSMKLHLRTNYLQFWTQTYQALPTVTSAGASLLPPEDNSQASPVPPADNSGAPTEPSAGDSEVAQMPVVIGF
The experiment is described as follows: inhibition of cholesteryl ester formation by cholesterol esterase (CEH), procedure of Field. The format is biochemical, bovine. How it is done: 2. The ability of the compounds of this invention to inhibit the formation of cholesteryl esters and thereby interfere with and prevent assimilation of cholesterol into the lymphatic system and ultimately the blood stream was established by incubating the compounds at 37C. with a mixture of cholesterol and oleic acid in the presence of buffered cholesterol esterase [(EC 3.1.1.13) Sigma Company, St. Louis, Mo., U.S.A., No. C-1892, from bovine pancreas] and measuring the amount of ester formed, according to the procedure of Field. J. of Lipid Research, 25, 389 (1984).

Experiment [3] deals with absorption of 14C-cholesterol. The experiment is described as follows: in vivo cholesterol absorption studies in normal rats ([4-14C] cholesterol). The conditions noted are these: Rattus norvegicus, read-out: Effect on Absorption of 14C-chol. - 6 hr - normal, % Decrease; for inhibition in vivo at 3 mg/kg: 3 mg/kg oral; for inhibition in vivo at 10 mg/kg: 10 mg/kg oral. The procedure: The in vivo cholesterol absorption studies were conducted in normal rats by oral administration of the compound being tested in propylene glycol and olive oil followed by oral administration of [4-^14 C] cholesterol in propylene glycol and olive oil, otherwise following the procedure of Cayen et al., J. Lipid Res. 20 162 (1979). The serum radioactivity was measured at six hours after dosing. The results of this study are reported in the following table as percent decrease compared to control at the dose stated.

Where [4] appears, read: 37C, cholesterol and oleic acid, buffered cholesterol esterase from bovine pancreas, read-out: CEH IC50.
Setting [5] is: normal rats, serum radioactivity at 6 hr, vs control.
[6] abbreviates: 20 mg/kg oral, normal rats, serum radioactivity at 6 hr, vs control.

Like-named read-outs stand apart in the source and are kept apart here.

The term IC50 denotes the concentration that gives 50% inhibition. As for `CCCCCCNC(=O)OCCCCCCNC(=O)OC1CCN(C(=O)Oc2ccc(Oc3ccccc3)cc2)CC1` [Example 6, 4-[6-(Hexylcarbamoyloxy)-hexylcarbamoyloxy]-piperidine-1-carboxylic acid 4-phenoxyphenyl ester], in experiment [1], the “ACAT % inhibition at 25 μM” value worked out at 97% and the IC50 turned out to be 1780 nM. Besides, the IC50 in experiment [2] (setting [4]) was determined as 420 nM. The inhibition in vivo at 3 mg/kg in experiment [3] (setting [5]) amounted to 59%.

Regarding `CCCCCCN(CCCCCC)C(=O)OCCCCCCNC(=O)OC1CCN(C(=O)Oc2ccc(Oc3ccccc3)cc2)CC1` [Example 7], the “ACAT % inhibition at 25 μM” value in experiment [1] is 76%. Further, the IC50 in experiment [1] turned out to be 6410 nM; in experiment [2] (setting [4]), 670 nM. For the same compound, the inhibition in vivo at 20 mg/kg in experiment [3] (setting [6]) turned out to be 42%.

As to `O=C(NCCCCCCOC(=O)N1CCCCC1)OC1CCN(C(=O)Oc2ccc(Oc3ccccc3)cc2)CC1` [Example 8, 4-[6-(Piperidine-1-carbonyloxy)-hexylcarbamoyloxy]-piperidine-1-carboxylic acid 4-phenoxyphenyl ester], in experiment [1], the “ACAT % inhibition at 25 μM” value worked out at 98% and the IC50 was 2340 nM. Besides, in experiment [2] (setting [4]), the IC50 was determined as 540 nM. Further, the inhibition in vivo at 3 mg/kg in experiment [3] (setting [5]) is 65%.

`O=C(NCCCCCCOC(=O)N(Cc1ccccc1)Cc1ccccc1)OC1CCN(C(=O)Oc2ccc(Oc3ccccc3)cc2)CC1` [Example 9]: in experiment [1], the “ACAT % inhibition at 25 μM” value is recorded as 95% and the IC50 is 1590 nM. In addition, the IC50 in experiment [2] (setting [4]) stood at 80 nM. The inhibition in vivo at 10 mg/kg in experiment [3] (setting [5]) was determined as 49%.

In the case of `CCCCCCNC(=O)OCCCCCCCCCCCCNC(=O)OC1CCN(C(=O)Oc2ccc(Oc3ccccc3)cc2)CC1` [Example 10, 4-[12-(Hexylcarbamoyloxy)-dodecylcarbamoyloxy]-piperidine-1-carboxylic acid 4-phenxoyphenyl ester], in experiment [1], the “ACAT % inhibition at 25 μM” value is 83% and the IC50 came out at 5000 nM. The compound further came in with an IC50 in experiment [2] of 620 nM. The inhibition in vivo at 20 mg/kg in experiment [3] (po, 6 h) was found to be 22%.

On to `CCCCCCCN(Cc1ccc(CC(C)(C)C)cc1)C(=O)OCCCCCCNC(=O)OC1CCN(C(=O)Oc2ccc(Oc3ccccc3)cc2)CC1` [Example 11, 4-{6-[(4-(2,2-Dimethyl-propyl)-benzyl)-heptyl-carbamoyloxy]-hexyl-carbamoyloxy}-piperidine-1-carboxylic acid 4-phenoxyphenyl ester], for which the “ACAT % inhibition at 25 μM” value in experiment [1] is recorded as 24%. Further, the IC50 in experiment [2] (setting [4]) was 28200 nM. In experiment [3] (setting [6]), the inhibition in vivo at 20 mg/kg turned out to be 6%.

`O=C(NCCCCCCOC(=O)N1CCC2(CCCC2)CC1)OC1CCN(C(=O)Oc2ccc(Oc3ccccc3)cc2)CC1` [Example 12, 8-Aza-spiro[4,5]decane-8-carboxylic acid 6-{[1-(4-phenoxy-phenoxycarbonyl)-piperidine-4-oxycarbonyl]amino}-hexyl ester]: in experiment [1], the “ACAT % inhibition at 25 μM” value worked out at 83% and the IC50 was 1720 nM. Moreover, the IC50 in experiment [2] (setting [4]) worked out at 310 nM. Moreover, in experiment [3] (setting [5]), the inhibition in vivo at 10 mg/kg was 76%.

For the compound `CCCCCCCC/C=C\CCCCCCCCNC(=O)OCCCCCCNC(=O)OC1CCN(C(=O)Oc2ccc(Oc3ccccc3)cc2)CC1` [Example 13], the “ACAT % inhibition at 25 μM” value in experiment [1] is 47%. Also, the 50% inhibitory concentration (IC50) in experiment [2] (setting [4]) is 15500 nM. Moreover, the inhibition in vivo at 20 mg/kg in experiment [3] (setting [6]) is 20%.

As to `CCCCCCCC/C=C\CCCCCCCCNC(=O)OCCCCCCCCCCCCNC(=O)OC1CCN(C(=O)Oc2ccc(Oc3ccccc3)cc2)CC1` [Example 14, (Z)-4-[12-(Octadec-9-enylcarbamoyloxy)-dodecylcarbamoyloxy]-piperidine-1-carboxylic acid 4-phenoxyphenyl ester], the “ACAT % inhibition at 25 μM” value in experiment [1] stood at 41%. In addition, the IC50 in experiment [2] (setting [4]) was above 100000 nM. The inhibition in vivo at 20 mg/kg in experiment [3] (setting [6]) worked out at 2%.

As to `CCCCCCNC(=O)OCCCNC(=O)OC1CCN(C(=O)Oc2ccc(Oc3ccccc3)cc2)CC1` [Example 16, 4-[3-(Hexylcarbamoyloxy)-propylcarbamoyloxy]-piperidine-1-carboxylic acid 4-phenoxyphenyl ester], the IC50 in experiment [2] (setting [4]) stood at 730 nM. For the same compound, the inhibition in vivo at 10 mg/kg in experiment [3] (setting [5]) came out at 68%.

Regarding `CCCCCCCCCNC(=O)OCCCNC(=O)OC1CCN(C(=O)Oc2ccc(Oc3ccccc3)cc2)CC1` [Example 18, 4-[3-(Nonylcarbamoyloxy)-propylcarbamoyloxy]-piperidine-1-carboxylic acid 4-phenoxyphenyl ester], in experiment [2] (setting [4]), the 50% inhibitory concentration (IC50) was found to be 510 nM. For the same compound, the inhibition in vivo at 10 mg/kg in experiment [3] (setting [5]) was 50%.

The record behind these values is patent US5952354A, “Tris carbamic acid esters: inhibitors of cholesterol absorption” (priority 1993, dated 1999).
